Results on 18 compounds are retold here after ChEMBL document CHEMBL1781967, “1-[4-(N-Benzylamino)phenyl]-3-phenylurea derivatives as a new class of hypoxia-inducible factor-1alpha inhibitors” (Bioorg Med Chem Lett, 2009).

Activity calls are given as the source filed them. No cut-off for these calls is given here. A value given as a limit tells only on which side of the number the result lay.

The target of experiment [1] is T1, Hypoxia-inducible factor 1-alpha (Homo sapiens, UniProt Q16665). Description: Inhibition of hypoxia-induced HIF1alpha transcriptional activity in HEK293 cells incubated for 16 hrs by hypoxia response element-driven luciferase reporter gene assay. Format: cell-based. On the technique in general: In a reporter assay the amount or activity of a reporter protein is the signal.
Target sequence in this assay (Q16665 whole entry): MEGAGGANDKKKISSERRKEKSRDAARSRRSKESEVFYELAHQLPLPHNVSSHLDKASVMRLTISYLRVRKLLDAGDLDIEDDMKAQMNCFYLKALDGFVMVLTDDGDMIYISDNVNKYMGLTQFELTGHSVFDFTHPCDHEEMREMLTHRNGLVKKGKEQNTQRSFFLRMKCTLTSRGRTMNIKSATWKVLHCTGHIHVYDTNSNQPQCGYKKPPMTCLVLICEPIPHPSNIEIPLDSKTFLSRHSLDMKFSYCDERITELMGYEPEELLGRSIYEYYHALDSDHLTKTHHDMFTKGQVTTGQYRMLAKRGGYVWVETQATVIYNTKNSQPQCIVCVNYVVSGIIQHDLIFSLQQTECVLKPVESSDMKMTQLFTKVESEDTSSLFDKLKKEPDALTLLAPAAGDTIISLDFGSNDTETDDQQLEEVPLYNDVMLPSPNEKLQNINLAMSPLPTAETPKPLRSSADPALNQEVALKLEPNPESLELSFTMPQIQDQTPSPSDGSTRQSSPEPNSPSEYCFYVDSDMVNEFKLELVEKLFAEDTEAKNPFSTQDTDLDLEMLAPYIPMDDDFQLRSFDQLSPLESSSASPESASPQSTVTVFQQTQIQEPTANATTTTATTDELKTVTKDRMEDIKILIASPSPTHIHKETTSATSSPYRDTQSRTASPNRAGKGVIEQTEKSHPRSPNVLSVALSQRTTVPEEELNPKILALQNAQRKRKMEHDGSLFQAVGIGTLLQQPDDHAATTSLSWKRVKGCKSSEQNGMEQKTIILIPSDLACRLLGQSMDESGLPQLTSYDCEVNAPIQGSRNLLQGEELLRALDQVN

Experiment [2] has as its system HeLa. Description: Effect on HIF1beta protein level in human HeLa cells incubated for 4 hrs under hypoxic conditions by Western blot. For orientation: In western blotting, separated proteins are transferred to a membrane and probed.
Experiment [3] concerns the target T1, Hypoxia-inducible factor 1-alpha. Description: Inhibition of HIF1alpha accumulation in human HeLa cells incubated for 4 hrs under hypoxic conditions by Western blot. The format is cell-based.
Target sequence in this assay (Q16665 whole entry, looked up): as the sequence (Q16665 whole entry) above
In experiment [4] the test system is HeLa. Description: Effect on HIF1alpha mRNA expression in human HeLa cells incubated for 2 hrs under hypoxic conditions by RT-PCR. Format: functional, cell-based.
For experiment [5], the system named is HeLa. Description: Inhibition of hypoxia-induced VEGF secretion in human HeLa cells incubated for 12 hrs under hypoxic conditions by ELISA. Format: functional, cell-based.

Consider `O=C(Nc1ccccc1)Nc1ccc(NCc2ccc(C(=O)O)cc2)cc1`, for which, in experiment [1], the 50% inhibitory concentration (IC50) (usually the concentration that inhibits the measured activity by half) was > 100 µM. Regarding `COC(=O)c1cccc(CNc2ccc(NC(=O)Nc3ccccc3)cc2)c1`, the outcome in experiment [2] and in experiment [4] was inactive. The IC50 amounted to 7.21 µM in experiment [1] and 15 µM in experiment [5]. The inhibition entry in experiment [3] and in experiment [5] was “Dose-dependent effect” in each case. `COc1ccc(CNc2ccc(NC(=O)Nc3ccccc3)cc2)cc1` came in with an IC50 in experiment [1] of 23 µM. Compound `COC(=O)c1ccc(OC)c(CNc2ccc(NC(=O)Nc3ccccc3)cc2)c1` displayed a half-inhibitory concentration (IC50) in experiment [1] of 22.1 µM. The IC50 values of the last two compounds are within 1.5-fold of each other. Still for that read-out and setting: with `O=C(Nc1ccccc1)Nc1ccc(NCc2cccc(O)c2)cc1` the figure was 69.9 µM. The compound `COC(=O)c1cc(CNc2ccc(NC(=O)Nc3ccccc3)cc2)cc(C(=O)OC)c1` displayed an IC50 in experiment [1] of 15.1 µM.

`COc1ccccc1CNc1ccc(NC(=O)Nc2ccccc2)cc1` yielded an IC50 in experiment [1] of 17.4 µM. Still for that read-out and setting: with `COc1cccc(OC)c1CNc1ccc(NC(=O)Nc2ccccc2)cc1` the figure was 39.1 µM; with `O=C(Nc1ccccc1)Nc1ccc(NCc2ccccc2C(=O)O)cc1`, 51.7 µM. Still for that read-out and setting: with `COc1cc(CNc2ccc(NC(=O)Nc3ccccc3)cc2)cc(OC)c1` the figure was 18.7 µM; with `O=C(Nc1ccccc1)Nc1ccc(NCc2ccc(O)cc2)cc1`, 35.5 µM. On to `COc1cccc(CNc2ccc(NC(=O)Nc3ccccc3)cc2)c1OC`, for which 8.62 µM corresponded to half-maximal inhibition in experiment [1] (IC50). On the same count and under the same terms, with `COC(=O)c1ccc(CNc2ccc(NC(=O)Nc3ccccc3)cc2)cc1` the figure was > 100 µM; with `COc1cccc(CNc2ccc(NC(=O)Nc3ccccc3)cc2)c1`, 52.1 µM.

For `O=C(Nc1ccccc1)Nc1ccc(NCc2ccccc2O)cc1`, in experiment [1], the IC50 was 32.7 µM. Same read-out and setting: under `COC(=O)c1ccccc1CNc1ccc(NC(=O)Nc2ccccc2)cc1` stands 32.5 µM. `COc1ccc(OC)c(CNc2ccc(NC(=O)Nc3ccccc3)cc2)c1` yielded an IC50 in experiment [1] of 29.6 µM. Regarding `O=C(Nc1ccccc1)Nc1ccc(NCc2cccc(C(=O)O)c2)cc1`, the IC50 in experiment [1] came out at 41.6 µM.
